{"source": "patent US20030130200A1", "about": "“Small peptides and methods for treatment of asthma and inflammation” (Hisatek, LLC, priority 1997, published 2003)", "system": "type II collagen arthritis", "test": "Induced type II collagen arthritis mouse model", "format": "in vivo, mouse (DBA/1 male)", "conditions": "HK-X TC or footpad, 0.4 or 4 mg/kg for 20 days; x-ray and histology", "description": "A mouse model is used to evaluate the effect of the compounds of the present invention on the histological, radiographic and clinical appearance of induced type II collagen arthritis. Mice: DBA/1(2) male mice weighing 25 gms (Jackson Laboratories, Bar Harbor, Me. or B&K Universal, Kent Wash.) are used for this work. This strain of mouse is susceptible to CIA by the injection of heterologous type II collagen. Bovine Collagen (BC), Complete Freund's Adjuvant (CFA) and Incomplete Freund's Adjuvant (ICFA) can be obtained from Sigma Chemical. Antigen for immunization is processed in 0.1 M acetic acid and formulated with CFA or ICFA. […] The degree of cellularity and areas of inflammation are quantified by using digitization of histological photomicrographs and applying standard area and point counting techniques as described above. […] The average area of soft tissue (pannus) of the joint is determined by analysis of computer digitized radiographs, along with changes in density of the adjacent hard tissues by comparison with internal standards included with each radiograph. […] The significance of the differences in density and area for control and experimental mice is assessed using paired T-tests at each time point. […] Swelling of hind paws is also quantitated by measuring the thickness of the ankle from the medial to the lateral malledus with a constant tension caliper. […]", "note": "Where no end group is shown, it is not given here. The star is where a group is joined. For = O=C*"}
{"substance": "f-Met-Leu-Phe-Phe (For-MLFF) [Example 9]", "values": [{"measurement": "Degree of arthritis", "result": "reduce the degree of arthritis"}]}
